Results as given in US11597703B2, “Caspase inhibitors and methods of use thereof” (Histogen Inc., priority 2019, dated 2023).

Assays:
[1] = target: T1, Caspase-1 (Homo sapiens, UniProt P29466); experiment: Caspase-1 enzyme inhibition assay (Ac-YVAD-pNA substrate), IC50; format: biochemical
T1 construct: purchased Enzo Biosciences
T1 sequence (P29466 120-297 limits assumed): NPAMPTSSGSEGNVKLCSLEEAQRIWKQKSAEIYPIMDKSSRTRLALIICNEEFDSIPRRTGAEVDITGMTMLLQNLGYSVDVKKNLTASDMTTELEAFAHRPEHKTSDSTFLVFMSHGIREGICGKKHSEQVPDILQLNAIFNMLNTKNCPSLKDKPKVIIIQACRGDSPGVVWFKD
T1 sequence (P29466 317-404 limits assumed): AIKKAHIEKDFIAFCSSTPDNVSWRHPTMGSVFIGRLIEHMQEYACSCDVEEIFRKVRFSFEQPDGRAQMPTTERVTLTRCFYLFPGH
Method in brief: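 Buffer was 50 mM HEPES pH 7.4, 100 mM NaCl, 0.1% CHAPS, 1 mM EDTA, 10% glycerol and 10 mM DTT. Caspase-1 was reacted with 200 μM Ac-YVAD-pNA (final). Release of p-nitroaniline was followed continuously at 405 nm, and rates were taken from the linear slope (ε 10,500 M-1 cm-1).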

[2] = target: T2, Caspase 6 (Homo sapiens, UniProt P55212); experiment: Caspase 6 enzymatic inhibition assay, IC50; format: biochemical; conditions: read-out: Caspase 6 enzyme inhibition IC50
T2 construct: purchased Enzo Biosciences
T2 sequence (P55212 24-179 limits assumed): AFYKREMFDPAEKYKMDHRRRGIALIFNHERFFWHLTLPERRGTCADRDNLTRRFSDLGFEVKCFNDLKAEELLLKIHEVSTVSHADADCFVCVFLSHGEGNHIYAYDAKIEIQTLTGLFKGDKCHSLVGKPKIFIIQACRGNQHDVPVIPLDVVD
T2 sequence (P55212 194-293 limits assumed): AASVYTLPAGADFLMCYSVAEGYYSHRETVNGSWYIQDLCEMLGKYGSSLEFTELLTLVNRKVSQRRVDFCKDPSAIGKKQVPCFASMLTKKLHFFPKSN
Method in brief: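 Commercially sourced human caspases. Activity assays followed the maker's instructions for caspase-3, 6 and 7. Potency given as IC50.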

[3] = tested on: IL 18; experiment: Mouse in vivo model of peritoneal inflammation (LPS/ATP), IL 18 in peritoneal lavage fluid; parameters: species or system Mice; conditions: mouse peritonitis, IP injection
Method: Compounds of the present invention were tested in a mouse in vivo model of peritoneal inflammation (peritonitis). Mice were treated with intraperotonial injection of bacterial endotoxin, (LPS). After 1 hour, test compounds were administered by IP injection. After an additional hour, adenosine triphosphate (ATP) was administered by IP injection to further induce the production of the inflammatory cytokines, IL-1β and IL 18. After 0.5 hours, peritoneal lavage fluid was collected and analyzed for IL-1β and IL 18. An inhibitor of the NLRP 3 inflammasome, MCC950, was administered by IP injection and included as a reference test compound. […] IL18 levels were determined by a commercially available ELISA kit following the manufacture's instructions FIG. 3.

[4] = Rodent model of ulcerative colitis induced by TNBS; format: in vivo, Sprague-Dawley rats; conditions: for colon histology: Edema, Submucosal, Mean / colon histology: Erosion/ Ulceration, Mean / colon histology: Hyperplasia, Epithelial, Mean / colon histology: Necrosis, Mucosal/ Gland Loss, Mean / colon histology: SUM Score, Mean / colon histology: Subacute Inflammation, Mucosal/ Submucosal, Mean / colon histology: Subacute Inflammation, Transmural/ Serosal, Mean: DAY 7
Method: Compounds of the present invention were tested by oral administration in a rodent model of ulcerative colitis (UC). Ulcerative colitis was induced in Sprague-Dawley rats by instillation of 48 mg/kg […], (TNBS), through the rectum. Testing included 4 active treatment groups and one vehicle control group.
Effect of TNBS-Induced UC in Vehicle Treated Control Group, (Group 1):
Rats were administered of 0.5% vehicle carboxy methylcellulose, (CMC), twice daily starting 24 hours after the instillation of TNBS.
At the termination of the study on DAY 7, the average colon weight in the diseased rats was 5.904±2.208 g, the average colon length was 11.0±1.4 cm and the average distal colon width was 3.1±1.0 cm. Severe adhesions involving multiple intestinal loops, severe stricture resulting in proximal colon distension, ulcers of 6.4±0.4 cm in length, and colonic wall thickness of 3.5±0.8 mm combined to yield an overall colonic score of 11.5±0.8 in the diseased rats. […] Subacute inflammation (sub/mucosal and transmural/serosal were graded separately) was characterized by infiltration and aggregation of neutrophils, eosinophils, lymphocytes, plasma cells, and macrophages. Mucosal necrosis was characterized by damage to, necrosis of, or complete loss of colonic glands. Erosions were characterized by coagulative necrosis or loss of surface epithelium superficial to the muscularis mucosae. Submucosal edema was characterized by expansion of the submucosa by clear space or pale eosinophilic fluid, variably accompanied by dilation of lymphatic vessels and similar edematous expansion of the lamina propria. Epithelial hyperplasia was characterized by elongation of colonic glands and increased numbers of epithelial mitotic figures.

[5] = Group 3, 10 mg/kg/dose twice daily oral
[6] = Group 4, 30 mg/kg/dose twice daily oral
[7] = Group 5, 100 mg/kg/dose twice daily oral
[8] = all dose groups (10, 30, 100 mg/kg/dose twice daily oral)

IC50 [1]: ≤ 10 nM
IC50 [2]: ≥ 1000 nM
SMILES: C[C@H](NC(=O)C(=O)Nc1c(F)cccc1F)C(=O)N[C@@H](CCC(=O)O)C(=O)COc1c(F)c(F)cc(F)c1F [Example 6, (S)-4-((S)-2-(2-((2,6-Difluorophenyl)amino)-2-oxoacetamido)propanamido)-5-oxo-6-(2,3,5,6-tetrafluorophenoxy)hexanoic acid]
inhibition of the in vivo production of IL 18 [3]: statistically significant inhibition
body weights, onset of significant improvement [4, 5]: significantly improved beginning on DAY 4
colon histology: Edema, Submucosal, Mean [4, 5]: 3.2
colon histology: Erosion/ Ulceration, Mean [4, 5]: 4.0
colon histology: Hyperplasia, Epithelial, Mean [4, 5]: 3.4
colon histology: Necrosis, Mucosal/ Gland Loss, Mean [4, 5]: 4.0
colon histology: SUM Score, Mean [4, 5]: 19.3
colon histology: Subacute Inflammation, Mucosal/ Submucosal, Mean [4, 5]: 4.3
colon histology: Subacute Inflammation, Transmural/ Serosal, Mean [4, 5]: 3.9
average animal weight, Mean ([4]; Group 3, 10 mpk twice daily oral, study day 0): 241 g
average animal weight, Mean ([4]; Group 3, 10 mpk twice daily oral, study day 1): 236 g
average animal weight, Mean ([4]; Group 3, 10 mpk twice daily oral, study day 2): 223 g
average animal weight, Mean ([4]; Group 3, 10 mpk twice daily oral, study day 3): 218 g
average animal weight, Mean ([4]; Group 3, 10 mpk twice daily oral, study day 4): 218 g
average animal weight, Mean ([4]; Group 3, 10 mpk twice daily oral, study day 5): 222 g
average animal weight, Mean ([4]; Group 3, 10 mpk twice daily oral, study day 6): 227 g
average animal weight, Mean ([4]; Group 3, 10 mpk twice daily oral, study day 7): 228 g
average animal weight, Mean ([4]; Group 3, 10 mpk twice daily oral, study day −1): 256 g
average animal weight, Mean ([4]; Group 3, 10 mpk twice daily oral, study day −5): 222 g
body weights, onset of significant improvement [4, 6]: statistically significantly improved body weights starting on DAY 5
reduction in overall colonic score [4, 6]: 40%
colon histology: Edema, Submucosal, Mean [4, 6]: 2.6
colon histology: Erosion/ Ulceration, Mean [4, 6]: 3.4
colon histology: Hyperplasia, Epithelial, Mean [4, 6]: 3.1
colon histology: Necrosis, Mucosal/ Gland Loss, Mean [4, 6]: 3.4
colon histology: SUM Score, Mean [4, 6]: 17.6
colon histology: Subacute Inflammation, Mucosal/ Submucosal, Mean [4, 6]: 3.9
colon histology: Subacute Inflammation, Transmural/ Serosal, Mean [4, 6]: 3.2
average animal weight, Mean ([4]; Group 4, 30 mpk twice daily oral, study day 0): 234 g
average animal weight, Mean ([4]; Group 4, 30 mpk twice daily oral, study day 1): 228 g
average animal weight, Mean ([4]; Group 4, 30 mpk twice daily oral, study day 2): 215 g
average animal weight, Mean ([4]; Group 4, 30 mpk twice daily oral, study day 3): 214 g
average animal weight, Mean ([4]; Group 4, 30 mpk twice daily oral, study day 4): 216 g
average animal weight, Mean ([4]; Group 4, 30 mpk twice daily oral, study day 5): 218 g
average animal weight, Mean ([4]; Group 4, 30 mpk twice daily oral, study day 6): 220 g
average animal weight, Mean ([4]; Group 4, 30 mpk twice daily oral, study day 7): 223 g
average animal weight, Mean ([4]; Group 4, 30 mpk twice daily oral, study day −1): 248 g
average animal weight, Mean ([4]; Group 4, 30 mpk twice daily oral, study day −5): 222 g
body weights, onset of significant improvement [4, 7]: statistically significantly improved body weights starting on DAY 5
colon histology: Edema, Submucosal, Mean [4, 7]: 3.0
colon histology: Erosion/ Ulceration, Mean [4, 7]: 3.6
colon histology: Hyperplasia, Epithelial, Mean [4, 7]: 3.0
colon histology: Necrosis, Mucosal/ Gland Loss, Mean [4, 7]: 3.6
colon histology: SUM Score, Mean [4, 7]: 17.5
colon histology: Subacute Inflammation, Mucosal/ Submucosal, Mean [4, 7]: 3.9
colon histology: Subacute Inflammation, Transmural/ Serosal, Mean [4, 7]: 3.4
average animal weight, Mean ([4]; Group 5, 100 mpk twice daily oral, study day 0): 232 g
average animal weight, Mean ([4]; Group 5, 100 mpk twice daily oral, study day 1): 231 g
average animal weight, Mean ([4]; Group 5, 100 mpk twice daily oral, study day 2): 219 g
average animal weight, Mean ([4]; Group 5, 100 mpk twice daily oral, study day 3): 213 g
average animal weight, Mean ([4]; Group 5, 100 mpk twice daily oral, study day 4): 217 g
average animal weight, Mean ([4]; Group 5, 100 mpk twice daily oral, study day 5): 220 g
average animal weight, Mean ([4]; Group 5, 100 mpk twice daily oral, study day 6): 222 g
average animal weight, Mean ([4]; Group 5, 100 mpk twice daily oral, study day 7): 225 g
average animal weight, Mean ([4]; Group 5, 100 mpk twice daily oral, study day −1): 246 g
average animal weight, Mean ([4]; Group 5, 100 mpk twice daily oral, study day −5): 222 g
SUM scores of colon histological parameters [4, 8]: statistically significant improvement
overall colonic score [4, 8]: statistically significant improvement
